Assay results published in patent publication US6815456B2, “Heterocyclyloxy-, -thioxy- and -aminobenzazole derivatives as 5-hydroxytryptamine-6 ligands” (Wyeth, priority 2001, dated 2004).
Where a name gives a salt, the structure may show the parent alone.

Molecular target: T1, human cloned 5-HT6 receptors (Homo sapiens, UniProt P50406)
T1 construct: expressed in transfected cells; host or cells: HeLa cells
Assay: 5-HT6 binding affinity, [3H]-LSD displacement on membranes of Hela cells expressing human cloned 5-HT6 receptors
Details: [3H]-LSD 3.0 nM, Hela cell membranes, 120 min at room temperature
Description: The affinity of test compounds for the serotonin 5-HT6 receptor is evaluated in the following manner. Cultured Hela cells expressing human cloned 5-HT6 receptors are harvested and centrifuged at low speed (1,000×g) for 10.0 min to remove the culture media. The harvested cells are suspended in half volume of fresh physiological phosphate buffered saline solution and recentrifuged at the same speed. This operation is repeated. The collected cells are then homogenized in ten volumes of 50 mM Tris.HCl (pH 7.4) and 0.5 mM EDTA. The homogenate is centrifuged at 40,000×g for 30.0 min and the precipitate is collected. The obtained pellet is resuspended in 10 volumes of Tris.HCl buffer and recentrifuged at the same speed. The final pellet is suspended in a small volume of Tris.HCl buffer and the tissue protein content is determined in aliquots of 10-25 μl volumes. Bovine Serum Albumin is used as the standard in the protein determination according to the method described in Lowry et al., J. Biol. Chem., 193:265 (1951). The volume of the suspended cell membranes is adjusted to give a tissue protein concentration of 1.0 mg/ml of suspension. The prepared membrane suspension (10 times concentrated) is aliquoted in 1.0 ml volumes and stored at −70° C. until used in subsequent binding experiments.
Binding experiments are performed in a 96 well microtiter plate format, in a total volume of 200 μl. […] The test compounds are added in 20.0 μl volume.
The reaction is allowed to proceed in the dark for 120 min at room temperature, at which time, the bound ligand-receptor complex is filtered off on a 96 well unifilter with a Packard Filtermate® 196 Harvester. The bound complex caught on the filter disk is allowed to air dry and the radioactivity is measured in a Packard TopCount® equipped with six photomultiplier detectors, after the addition of 40.0 μl Microscint®-20 scintillant to each shallow well. The unifilter plate is heat-sealed and counted in a PackardTopCount® with a tritium efficiency of 31.0%.
Binding in the presence of varying concentrations of test compound is expressed as a percentage of specific binding in the absence of test compound. The results are plotted as log % bound versus log concentration of test compound. […] A linear regression line of data points is plotted, from which the IC50 value is determined and the Ki value is determined based upon the following equation: […]
where L is the concentration of the radioactive ligand used and KD is the dissociation constant of the ligand for the receptor, both expressed in nM.

T1 sequence (P50406 whole entry): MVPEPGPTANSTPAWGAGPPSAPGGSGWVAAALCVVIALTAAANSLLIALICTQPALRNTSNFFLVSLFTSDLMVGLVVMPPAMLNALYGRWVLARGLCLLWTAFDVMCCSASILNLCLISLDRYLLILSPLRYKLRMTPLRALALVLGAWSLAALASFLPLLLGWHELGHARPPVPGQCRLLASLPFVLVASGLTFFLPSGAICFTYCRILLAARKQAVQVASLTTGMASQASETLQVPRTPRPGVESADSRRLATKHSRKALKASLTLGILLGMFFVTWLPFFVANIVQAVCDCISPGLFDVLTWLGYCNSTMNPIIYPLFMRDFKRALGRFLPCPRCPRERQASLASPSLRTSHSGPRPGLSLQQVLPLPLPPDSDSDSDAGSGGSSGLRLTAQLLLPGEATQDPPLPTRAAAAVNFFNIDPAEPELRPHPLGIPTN

Row | Compound | Ki [nM]
1 | COc1ccc(S(=O)(=O)n2ncc3c(OC4CCNC4)cccc32)cc1OC (stereo not shown) [Example 18] | 75
2 | O=S(=O)(c1ccccc1)n1ncc2c(OC3CCNC3)cccc21 (stereo not shown) [Example 14, 1-(Phenylsulfonyl)-4-(pyrrolidin-3-yloxy)-1H-indazole, trifluoroacetic acid salt] | 19
3 | Nc1ccc(S(=O)(=O)n2ccc3c(OC4CCNC4)cccc32)cc1 (stereo not shown) [Example 5, 4-{[4-(3-pyrrolidinyloxy)-1H-indol-1-yl]sulfonyl}aniline] | 5
4 | Nc1ccc(S(=O)(=O)n2ccc3c(OC4CCCNC4)cccc32)cc1 (stereo not shown) [Example 9, 4-{[4-(piperidin-3-yloxy)-1H-indol-1-yl]sulfonyl}aniline] | 11
5 | O=S(=O)(c1ccccc1)n1ccc2c(OC3CCNC3)cccc21 (stereo not shown) [Example 3, 1-(Phenylsulfonyl)-4-(3-pyrrolidinyloxy)-1H-indole Hydrochloride] | 8
6 | CC(=O)Nc1ccc(S(=O)(=O)n2ncc3c(OC4CCNC4)cccc32)cc1 (stereo not shown) [Example 21] | 124
7 | O=S(=O)(c1cccs1)n1ccc2c(OC3CCNC3)cccc21 (stereo not shown) [Example 4, 4-(3-pyrrolidinyloxy)1-(thien-2-ylsulfonyl)-1H-indole] | 25
8 | O=S(=O)(c1cccc2ccccc12)n1ccc2c(OC3CCNC3)cccc21 (stereo not shown) [Example 6, 1-(1-naphthylsulfonyl)-4-(3-pyrrolidinyloxy)-1H-indole] | 13
9 | Nc1ccc(S(=O)(=O)n2ccc3c(OC4CCNCC4)cccc32)cc1 [Example 8, 4-{[4-(piperidin-4-yloxy)-1H-indol-1-yl]sulfonyl}aniline] | 3

Now from value to compound:

Row | Ki [nM] | Compound
10 | 22 | O=S(=O)(c1cccc2cccnc12)n1ncc2c(OC3CCNC3)cccc21 (stereo not shown) [Example 22, 8-{[4-(3-pyrrolidinyloxy)-1H-indazol-1-yl]sulfonyl}quinoline]
11 | 3 | O=S(=O)(c1cccc2ccccc12)n1ncc2c(OC3CCNC3)cccc21 (stereo not shown) [Example 15, 1-(1-naphthylsulfonyl)-4-(3-pyrrolidinyloxy)-1H-indazole]
12 | 9 | O=S(=O)(c1ccc(Cl)s1)n1ncc2c(OC3CCNC3)cccc21 (stereo not shown) [Example 19, 1-[(5-Chlorothien-2-yl)sulfonyl]-4-(3-pyrrolidinyloxy)-1H-indazole]
13 | 12 | CC(=O)Nc1ccc(S(=O)(=O)n2ncc3c(OC4CCNC4)cccc32)cc1Cl (stereo not shown) [Example 20, N-(2-Chloro-4-{[4-(3-pyrrolidinyloxy)-1H-indazol-1-yl]sulfonyl}phenyl)acetamide]
14 | 19 | O=S(=O)(c1ccccc1Cl)n1ncc2c(OC3CCNC3)cccc21 (stereo not shown) [Example 16, 1-[(2-Chlorophenyl)sulfonyl]-4-(3-pyrrolidinyloxy)-1H-indazole]
15 | 25 | O=S(=O)(c1ccccc1F)n1ncc2c(OC3CCNC3)cccc21 (stereo not shown) [Example 17, 1-[(2-fluorophenyl)sulfonyl]-4-(3-pyrrolidinyloxy)-1H-indazole]

System: not given
Assay: not given
Details: not given

Row | Compound | melting point
16 | Nc1ccc(S(=O)(=O)n2ccc3c(OC4CCNCC4)cccc32)cc1 (as salt: hydrochloride) [Example 8, 4-{[4-(piperidin-4-yloxy)-1H-indol-1-yl]sulfonyl}aniline] | 117 to 119 °C
17 | Cc1nn(C)c(Cl)c1S(=O)(=O)n1ccc2c(OC3CCNC3)cccc21 (stereo not shown) (as salt: hydrochloride) [Example 7, 1-[(5-Chloro-1,3-dimethyl-1H-pyrazol-4-yl)sulfonyl]-4-(3-pyrrolidinyloxy)-1H-indole] | 100 °C (dec.)
18 | Nc1ccc(S(=O)(=O)n2ccc3c(OC4CCCNC4)cccc32)cc1 (stereo not shown) (as salt: hydrochloride) [Example 9, 4-{[4-(piperidin-3-yloxy)-1H-indol-1-yl]sulfonyl}aniline] | 160 °C (dec.)
19 | O=S(=O)(c1cccc2ccccc12)n1ccc2c(OC3CCNC3)cccc21 (stereo not shown) (as salt: hydrochloride) [Example 6, 1-(1-naphthylsulfonyl)-4-(3-pyrrolidinyloxy)-1H-indole] | 179 °C (dec.)

The next lines start with the values.

Row | melting point | Compound
20 | 161 to 163 °C | O=S(=O)(c1ccccc1Cl)n1ncc2c(OC3CCNC3)cccc21 (stereo not shown) (as salt: trifluoroacetic acid salt) [Example 16, 1-[(2-Chlorophenyl)sulfonyl]-4-(3-pyrrolidinyloxy)-1H-indazole]
21 | 79 °C | O=S(=O)(c1cccc2cccnc12)n1ncc2c(OC3CCNC3)cccc21 (stereo not shown) (as salt: trifluoroacetic acid salt) [Example 22, 8-{[4-(3-pyrrolidinyloxy)-1H-indazol-1-yl]sulfonyl}quinoline]
22 | 200 to 201 °C | O=S(=O)(c1cccc2ccccc12)n1ncc2c(OC3CCNC3)cccc21 (stereo not shown) (as salt: trifluoroacetic acid salt) [Example 15, 1-(1-naphthylsulfonyl)-4-(3-pyrrolidinyloxy)-1H-indazole]
23 | 162 to 163 °C | O=S(=O)(c1ccccc1F)n1ncc2c(OC3CCNC3)cccc21 (stereo not shown) (as salt: trifluoroacetic acid salt) [Example 17, 1-[(2-fluorophenyl)sulfonyl]-4-(3-pyrrolidinyloxy)-1H-indazole]
24 | 102 to 103 °C | O=S(=O)(c1ccc(Cl)s1)n1ncc2c(OC3CCNC3)cccc21 (stereo not shown) (as salt: trifluoroacetic acid salt) [Example 19, 1-[(5-Chlorothien-2-yl)sulfonyl]-4-(3-pyrrolidinyloxy)-1H-indazole]
25 | 68 to 72 °C | CC(=O)Nc1ccc(S(=O)(=O)n2ncc3c(OC4CCNC4)cccc32)cc1Cl (stereo not shown) (as salt: trifluoroacetic acid salt) [Example 20, N-(2-Chloro-4-{[4-(3-pyrrolidinyloxy)-1H-indazol-1-yl]sulfonyl}phenyl)acetamide]
